Measurements reported in patent US9604998B2, “Inhibitors of the renal outer medullary potassium channel” (MERCK SHARP & DOHME CORP., priority 2013, dated 2017).
Structures can show the parent of a compound that is named as a salt. Where two headings read alike, the source gives them in different places.

How the values were obtained:
[1] = target: hROMK (hKir1.1) (Homo sapiens (Human), UniProt P48048); test: Thallium Flux Assay (ROMK channel functional thallium flux, FLIPR-Tetra); assay type: cell-based
Description: HEK293 cells stably expressing hROMK (hKir1.1) were grown at 37° C. in a 10% CO2 humidified incubator in complete growth media: Dulbecco's Modified Eagle Medium supplemented with non-essential amino acids, Penicillin/Streptomycin/Glutamine, G418 and FBS. At >80% confluency, aspirate the media from the flask and rinse with 10 mL Calcium/Magnesium-free PBS. […] To dislodge the cell, gently bang the side of the flask with your hand. Triturate the cells completely and then transfer the cells to 25 mL complete media. Centrifuge at 1,500 rpm for 6 min followed by resuspension in complete growth media and determine cell concentration.
Compound Buffer (per microplate): 20 mL Probenecid/Assay Buffer; 0.3 mM ouabain (10 mM ouabain in water can be stored in amber bottle/aluminum foil at room temperature); Test compound
Stimulant Buffer (prepared at 5× final concentration in 1× FluxOR™ Chloride-Free Buffer): 7.5 mM Thallium sulfate and […] (to give a final assay concentration of 3 mM Thallium/0.3 mM Potassium). Store at 4° C. when not in use. If kept sterile, this solution is good for months.
The ROMK channel functional thallium flux assay is performed in 384 wells, using the FLIPR-Tetra instrument. HEK-hKir1.1 cells are seeded in Poly-D-Lysine microplates and kept in a 37° C.-10% CO2 incubator overnight. On the day of the experiment, the growth media is replaced with the FluxOR™ reagent loading buffer and incubated, protected from light, at ambient temperature (23-25° C.) for 90 min. The loading buffer is replaced with assay buffer±test compound followed by 30 min incubation at ambient temperature, where the Thallium/Potassium stimulant is added to the microplate.
1. Seed HEK-hKir1.1 cells (50 μl at 20,000 cells/well) in 384-well PDL coated Microplates
2. Allow cells to adhere overnight in humidified 37° C./10% CO2 incubator
3. Completely remove cell growth media from microplate and replace with 25 μl loading buffer
4. Incubate Microplate at room temperature, protected form light, for 90 min
5. Remove loading buffer and replace with 25 μl 1× Assay Buffer±test compound.
6. Incubate microplate at room temperature, protected from light, for 30 min
7. […] Excitation=400 nm, Emission=460 & 580 nm. Collect data for ˜10 min.
The fluorescence intensity of wells containing 3 μM of a standard control ROMK inhibitor of the present invention is used to define the ROMK-sensitive component of thallium flux. Fluorescence in the presence of test compounds is normalized to control values to provide % fluorescence change.

[2] = target: Kir1.1 (ROMK1) (Homo sapiens (Human), UniProt P48048); test: Electrophysiology Assay (whole cell voltage clamp, IonWorks Quattro); assay type: cell-based; conditions: block during voltage step to 0 mV
Description: Chinese hamster ovary cells stably expressing Kir1.1 channels were maintained in T-75 flasks in cell culture media in a humidified 10% CO2 incubator at 37° C. Prior to an experiment, Kir1.1 expression was induced by overnight incubation with 1 mM sodium butyrate. […] After centrifugation, the cell pellet was resuspended in approximately 4.0 mL of bath solution and placed in the IonWorks instrument. The intracellular solution consisted of (in mM): 80 K gluconate, 40 KCl, 20 KF, 3.2 MgCl2, 3 EGTA, 5 Hepes, pH 7.4. Electrical access to the cytoplasm was achieved by perforation in 0.13 mg/mL amphotericin B for 4 min. […] Voltage protocols and current recordings were performed using the IonWorks HT software/hardware system. Currents were sampled at 1 kHz. No correction for liquid junction potentials was used. The test pulse, consisting of a 100 ms step to 0 mV from a holding potential of −70 mV, followed by a 100 ms voltage ramp from −70 mV to +70 mV, was applied before and after a 6 min compound incubation period. Test compounds were prepared by diluting DMSO stock solutions into the bath solution at 3× the final concentration and placed in the instrument in 96-well polypropylene plates. Current amplitudes were measured using the IonWorks software.

[3] = HEK293 cells stably expressing hROMK (hKir1.1), read-out: Thallium Flux IC50
[4] = Chinese hamster ovary cells stably expressing Kir1.1, read-out: Electrophysiology IC50

hROMK (hKir1.1), sequence (P48048 whole entry): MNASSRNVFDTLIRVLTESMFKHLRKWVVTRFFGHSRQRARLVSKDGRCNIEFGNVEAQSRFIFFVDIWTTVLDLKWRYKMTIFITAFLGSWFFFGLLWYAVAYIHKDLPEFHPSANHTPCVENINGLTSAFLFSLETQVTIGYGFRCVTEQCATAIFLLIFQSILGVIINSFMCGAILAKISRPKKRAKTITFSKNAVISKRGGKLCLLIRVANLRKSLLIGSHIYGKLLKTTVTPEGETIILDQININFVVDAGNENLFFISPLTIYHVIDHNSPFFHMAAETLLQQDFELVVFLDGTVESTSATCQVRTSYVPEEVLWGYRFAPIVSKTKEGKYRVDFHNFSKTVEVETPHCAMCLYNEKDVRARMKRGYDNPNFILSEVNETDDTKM
Kir1.1 (ROMK1), sequence (P48048 whole entry, species assumed): as the sequence (P48048 whole entry) above

SMILES | IC50 [1, 3] | IC50 [2, 4] | IC50 ([1]; Thallium Flux IC50, HEK293 cells stably expressing hROMK (hKir1.1)) | IC50 ([2]; Electrophysiology IC50, Chinese hamster ovary cells stably expressing Kir1.1)
COc1cc(C(O)CN2CCN3C[C@@H](c4ccc5c(c4)COC5=O)OC[C@@H]3C2)c(Cl)cc1C#N (stereo partly drawn) [Example 10, (3R,9aS)-8-[2-(2-chloro-4-cyano-5-methoxyphenyl)-2-hydroxyethyl]-3-(1-oxo-1,3-dihydro-2-benzofuran-5-yl)octahydropyrazino[2,1-c][1,4]oxazin-5-ium trifluoroacetate] | 0.55 µM | 0.13 µM | – | –
Cc1c([C@@H]2CN3CCN(C4CCc5cc(C#N)ccc5C4)C[C@H]3CO2)ccc2c1COC2=O (stereo partly drawn) [Example 100, (3R,9aS)-8-(6-cyano-1,2,3,4-tetrahydronaphthalen-2-yl)-3-(4-methyl-1-oxo-1,3-dihydro-2-benzofuran-5-yl)octahydropyrazino[2,1-c][1,4]oxazin-5-ium trifluoroacetate] | 0.03 µM | 0.21 µM | – | –
Cc1c([C@@H]2CN3CCN(CCc4ccc5c(c4)COC5=O)C[C@@H]3CN2)ccc(F)c1C#N [Example 105] | 0.29 µM | 0.15 µM | – | –
COc1cc(CCN2CCN3C[C@@H](c4ccc5c(c4C)COC5=O)OC[C@@H]3C2)cc(F)c1C#N [Example 99] | 0.26 µM | 0.21 µM | – | –
Cc1c(CCN2CCN3C[C@H](c4ccc5c(c4Cl)COC5=O)OC[C@@H]3C2)ccc2c1COC2=O [Example 89] | 0.2 µM | 0.1 µM | – | –
Cc1c([C@H](O)CN2CCN3C[C@@H](c4ccc5c(c4C)COC5=O)OC[C@@H]3C2)ccc2c1COC2=O [Example 2, 5-((S)-1-hydroxy-2-((3R,9aS)-3-(4-methyl-1-oxo-1,3-dihydroisobenzofuran-5-yl)hexahydropyrazino[2,1-c][1,4]oxazin-8(1H)-yl)ethyl)-4-methylisobenzofuran-1(3H)-one] | 0.23 µM | 0.08 µM | – | –
Cc1c([C@@H](O)CN2CCN3C[C@@H](c4cc(F)c(C#N)c(F)c4)OC[C@@H]3C2)ccc2c1COC2=O [Example 52, (3R,9aS)-3-(4-cyano-3,5-difluorophenyl)-8-[(2R)-2-hydroxy-2-(4-methyl-1-oxo-1,3-dihydro-2-benzofuran-5-yl)ethyl]octahydropyrazino[2,1-c][1,4]oxazin-8-ium chloride] | 0.41 µM | 0.1 µM | – | –
Cc1c([C@H]2CN3CCN(CCc4ccc(-n5cnnn5)nc4)C[C@H]3CO2)ccc(F)c1C#N [Example 93] | 0.08 µM | 0.08 µM | – | –
Cc1c([C@H]2CN3CCN(CCc4ccc5c(c4)COC5=O)C[C@@H]3CN2)ccc(F)c1C#N [Example 106] | 0.13 µM | 0.05 µM | – | –
COc1cc([C@@H]2CN3CCN(CCc4ccc5c(c4C)COC5=O)C[C@@H]3CO2)ccc1C#N [Example 76] | 0.44 µM | 0.09 µM | – | –
Cc1c([C@@H]2CN3CCN(CCc4ccc5c(c4C)COC5=O)C[C@H]3CO2)ccc(F)c1C#N [Example 80] | 0.06 µM | 0.05 µM | – | –
COc1c(C#N)ccc(CCN2CCN3C[C@@H](c4ccc5c(c4C)COC5=O)OC[C@@H]3C2)c1C [Example 82] | 0.06 µM | 0.08 µM | – | –
Cc1c([C@@H]2CN3CCN(CC(O)c4cccc(-n5cnnn5)c4)C[C@@H]3CO2)ccc(F)c1C#N (single isomer, unassigned) [Example 22] | 0.31 µM | 0.44 µM | – | –
Cc1c([C@@H]2CN3CCN(CC(O)c4ccc5c(c4C4CC4)COC5=O)C[C@H]3CO2)ccc2c1COC2=O (single isomer, unassigned) [Example 50] | 0.44 µM | 0.25 µM | – | –
COc1cc(CCN2CCN3C[C@H](c4ccc5c(c4C)COC5=O)OC[C@H]3C2)c(F)cc1C#N [Example 97] | 0.35 µM | 0.28 µM | – | –
Cc1c([C@@H]2CN3CCN(CC(O)c4ccc5c(c4)C[C@H](C)OC5=O)C[C@H]3CO2)ccc2c1COC2=O (single isomer, unassigned) [Example 44] | 0.27 µM | 0.13 µM | – | –
Cc1c([C@H]2CN3CCN(CC(C)c4ccc5c(c4)COC5=O)C[C@H]3CO2)ccc2c1COC2=O (stereo partly shown) [Example 66] | 0.17 µM | 0.14 µM | – | –
Cc1c([C@H]2CN3CCN(CCc4ccc5c(c4)COC5=O)C[C@H]3CO2)ccc2c1COC2=O [Example 65] | 0.17 µM | 0.11 µM | – | –
O=C1OCc2cc(CCN3CCN4C[C@H](c5ccc6c(c5)COC6=O)OC[C@@H]4C3)ccc21 [Example 63] | 0.23 µM | 0.04 µM | – | –
Cc1c([C@@H](O)CN2CCN3C[C@H](c4ccc(C#N)c(F)c4)OC[C@H]3C2)ccc2c1COC2=O [Example 28, (3S,9aR)-3-(4-cyano-3-fluorophenyl)-8-[(2R)-2-hydroxy-2-(4-methyl-1-oxo-1,3-dihydro-2-benzofuran-5-yl)ethyl]octahydropyrazino[2,1-c][1,4]oxazin-8-ium chloride] | 0.19 µM | 0.09 µM | – | –
Cc1c([C@@H]2CN3CCN(CCc4ccc5c(c4)COC5=O)C[C@H]3CN2)ccc(F)c1C#N [Example 103] | 0.14 µM | 0.06 µM | – | –
COc1cc(C(O)CN2CCN3C[C@@H](c4ccc5c(c4C)COC5=O)OC[C@@H]3C2)cc(F)c1C#N (stereo partly drawn) [Example 48, (3R,9aS)-8-[2-(4-cyano-3-fluoro-5-methoxyphenyl)-2-hydroxyethyl]-3-(4-methyl-1-oxo-1,3-dihydro-2-benzofuran-5-yl)octahydropyrazino[2,1-c][1,4]oxazin-5-ium chloride] | 0.22 µM | 0.21 µM | – | –
Cc1c([C@@H]2CN3CCN(CCc4ccc(-n5cnnn5)nc4)C[C@H]3CO2)ccc(F)c1C#N [Example 92] | 0.27 µM | 0.08 µM | – | –
Cc1c([C@@H](O)CN2CCN3C[C@@H](c4ccc5c(c4)COC5=O)OC[C@@H]3C2)ccc2c1COC2=O [Example 11, (3R,9aS)-8-[(2R)-2-hydroxy-2-(4-methyl-1-oxo-1,3-dihydro-2-benzofuran-5-yl)ethyl]-3-(1-oxo-1,3-dihydro-2-benzofuran-5-yl)octahydropyrazino[2,1-c][1,4]oxazin-5-ium trifluoroacetatep] | 0.36 µM | 0.06 µM | – | –
Cc1cc2c(cc1C(O)CN1CCN3C[C@@H](c4ccc(F)c(C#N)c4C)OC[C@@H]3C1)COC2=O (single isomer, unassigned) [Example 24, trifluoroacetate] | – | – | 0.45 µM | 0.24 µM
Cc1c([C@@H]2CN3CCN(CCc4cc(F)c(C#N)c(F)c4)C[C@H]3CO2)ccc2c1COC2=O [Example 98] | 0.17 µM | 0.09 µM | – | –
COc1cc(C(O)CN2CCN3C[C@@H](c4ccc5c(c4C)COC5=O)OC[C@@H]3C2)ccc1C#N (single isomer, unassigned) [Example 47] | 0.25 µM | 0.19 µM | – | –
Cc1c([C@@H]2CN3CCN(C[C@H](O)c4ccc5c(c4)COC5=O)C[C@@H]3CN2)ccc(F)c1C#N [Example 107] | 0.16 µM | 0.2 µM | – | –
Cc1c([C@@H]2CN3CCN(CC(O)c4ccc(-n5cnnn5)nc4)C[C@H]3CO2)ccc(F)c1C#N (single isomer, unassigned) [Example 16] | 0.56 µM | 0.08 µM | – | –
